Columns and labels:
[1] = Inter-conversion relationship (slurry competition) and form stability of free acid forms; settings: storage at RT for 1 month, XRPD
[2] = test system: db/db type 2 diabetes model; assay: Oral glucose tolerance test (OGTT) in db/db animals; format: in vivo, db/db mice
Experimental: At the end of the experiment, oral glucose tolerance tests were carried out on the db/db animals treated by different compounds. […] .

[3] = phase 3 clinical trials; cited from earlier work
[4] = test system: db/db type 2 diabetes model; assay: db/db type 2 diabetes model (body weight, serum TG, random blood glucose)
Description: 45 Db/db mice were evenly divided into 5 groups before the initiation of treatment based on the body weights, serum triglyceride (TG) levels, and random blood glucose levels.
All animals were weighed daily before each dosing and treated daily for 14 consecutive days.
All the data was imported into an Excel file and presented as Mean±SEM. Graphpad Prism 7.0 software was used for data statistical analysis by One-way or Two-way ANOVA, with P<0.05 as the criterion of significant differences.

[5] = test system: rat model of unilateral ureteral obstruction; assay: Rat model of unilateral ureteral obstruction, renal injury; settings: 0.2 mg/kg oral daily, 14 treatment days
Experimental: Housing temperature was maintained at 20-26° C. and humidity at 40%-60%. Rats were fed with a standard chow and allowed to access food and water ad libitum.
The formulation was prepared twice a week.
Vehicle or compounds were administrated by orally gavage daily. Unilateral ureteral obstruction was performed on the second day of compound treatment. Animals in model group, reference group and compound group underwent urethral ligation under isoflurane anesthesia one hour after receiving compound administration. A flank incision was cut to expose the left ureter, and a 4-0 surgical suture was used to perform two-point ligation to achieve urethral obstruction. Ureter was cut between the two ligation points. Animals in the control group were subjected to the same surgical treatment except the ligation and cut. After surgery, animals in each group continually received vehicle or compound for 12 more days, for a total of 14 treatment days.
Rats were sacrificed after 14 days' compound treatment. The obstructed kidney was weighed and collected for histology. The tissue samples were fixed with formalin, and then paraffin embedded. The embedded tissue was sectioned and stained with hematoxylin & eosin and Masson trichrome to assess kidney structure and fibrosis.
The multiple comparison was analyzed with the Kruskal-Wallis non-parameter test. […]

[6] = 7-day repeated oral gavage, body weights of ICR mice; format: in vivo; settings: for Weight Gain (g) compared with Day 0: n = 10
Description: 50 male ICR mice aged 6-8 weeks; source: Laboratory Animal Business Department, Shanghai Institute of Planned Parenthood Research.
After 3 days of acclimatization, ICR mice were grouped according to their body weights. The day of grouping is designated as Day 0. […] The animals were weighed and recorded daily.

[7] = test system: rat model of hyperlipidemia induced by high cholesterol diet; assay: Rat model of hyperlipidemia induced by high cholesterol diet (serum TG, NEFA); format: in vivo, Sprague-Dawley rats
Description: 8.2.1 High cholesterol diet (ASHF4) was used to induce an animal model of hyperlipidemia in the SD rats.
8.2.2 The male SD rats were fed with high cholesterol diet (ASHF4, Dyet, China) for 14 days. On the day before the start of the administration (Day 0), the animals were divided into 5 groups based on body weights and serum indicators and were continually fed with the high-cholesterol diet. The treatment groups were orally dosed with either compound or vehicle while continuing the high-cholesterol diet for a total of 1 week. The animals were weighed daily before the treatment, and the compounds were given at 9:00-9:30 in the morning based on the body weight of the day.
8.2.3 Animal blood was collected, and serum was separated for the analysis of serum lipid indicators on the day before the treatment and at the end of the last day for the experiment.
8.2.4 Serum indicators of triglyceride (TG) and free fatty acid (NEFA) were determined by an automatic blood biochemical analyzer.

[8] = 0.2 mg/kg and 0.6 mg/kg oral, after 7 days of treatment (Day 8)

[2H]C([2H])(Cc1nc(-c2ccccc2)oc1C)Oc1ccc(C[C@H](OC)C(=O)O)c2sccc12 [free acid Form D]
Form after storage [1]: converted to free acid Form E

CO[C@@H](Cc1ccc(OCCc2nc(-c3ccccc3)oc2C)c2ccsc12)C(=O)O [Aleglitazar, aleglitazar]
OGTT AUC0-120 min compared with the vehicle group ([2]; 0.2 mg/kg (Aleglitazar P<0.001; Compound 2 P<0.01)): significantly lower | OGTT blood glucose levels at each time point compared with the vehicle group ([2]; within 120 minutes, different dosages): significantly reduced | Blood sugar and blood lipid levels [3]: effectively reduce blood sugar and blood lipid levels | Heart failure risk [3]: a certain degree of heart failure risk | Serum TG levels compared with the vehicle group ([4]; Day 6 and Day 12, Aleglitazar 0.2 mg/kg, Compound 2 at different dosages): significantly lower | Random blood glucose reduction compared with the vehicle group ([4]; Day 7, 0.2 mg/kg): reached statistical significance | Average daily body weights compared with the vehicle group ([4]; Day 10 to Day 15, Aleglitazar 0.2 mg/kg, Compound 2 0.05, 0.2, 1 mg/kg): significantly higher | Level of lipid, free fatty acid and blood glucose compared with vehicle group ([4]; summary, all groups): significantly decreased | Total score of renal focal lesions compared to the model group [5]: did not achieve statistically significant improvement | Weight Gain (g) compared with Day 0 ([6]; 0.2 mg/kg oral QDx7 days, Day 1, ICR mice): 0.48 ± 0.27 g | Weight Gain (g) compared with Day 0 ([6]; 0.2 mg/kg oral QDx7 days, Day 2, ICR mice): 1.66 ± 0.39 g | Weight Gain (g) compared with Day 0 ([6]; 0.2 mg/kg oral QDx7 days, Day 3, ICR mice): 2.62 ± 0.42 g | Weight Gain (g) compared with Day 0 ([6]; 0.2 mg/kg oral QDx7 days, Day 4, ICR mice): 3.50 ± 0.42 g | Weight Gain (g) compared with Day 0 ([6]; 0.2 mg/kg oral QDx7 days, Day 5, ICR mice): 3.92 ± 0.4 g | Weight Gain (g) compared with Day 0 ([6]; 0.2 mg/kg oral QDx7 days, Day 6, ICR mice): 4.81 ± 0.37 g | Weight Gain (g) compared with Day 0 ([6]; 0.2 mg/kg oral QDx7 days, Day 7, ICR mice): 5.39 ± 0.56 g | Weight gain, significance compared with vehicle, One-way ANOVA ([6]; 0.2 mg/kg, Day 4): * (* p < 0.05) | Daily average weight gain compared with the vehicle group ([6]; 0.2 mg/kg, Day 4 and Day 5): significantly higher | Weight gain, significance compared with vehicle, One-way ANOVA ([6]; 0.2 mg/kg, Day 5): * (* p < 0.05) | Weight Gain (g) compared with Day 0 ([6]; 1 mg/kg oral QDx7 days, Day 1, ICR mice): 0.5 ± 0.2 g | Weight Gain (g) compared with Day 0 ([6]; 1 mg/kg oral QDx7 days, Day 2, ICR mice): 1.64 ± 0.26 g | Weight Gain (g) compared with Day 0 ([6]; 1 mg/kg oral QDx7 days, Day 3, ICR mice): 2.61 ± 0.51 g | Weight Gain (g) compared with Day 0 ([6]; 1 mg/kg oral QDx7 days, Day 4, ICR mice): 3.33 ± 0.54 g | Weight Gain (g) compared with Day 0 ([6]; 1 mg/kg oral QDx7 days, Day 5, ICR mice): 3.86 ± 0.49 g | Weight Gain (g) compared with Day 0 ([6]; 1 mg/kg oral QDx7 days, Day 6, ICR mice): 4.98 ± 0.52 g | Weight Gain (g) compared with Day 0 ([6]; 1 mg/kg oral QDx7 days, Day 7, ICR mice): 5.34 ± 0.50 g | Daily average weight gain compared with the vehicle group ([6]; 1 mg/kg, Day 6): significantly higher | Weight gain, significance compared with vehicle, One-way ANOVA ([6]; 1 mg/kg, Day 6): * (* p < 0.05) | Serum NEFA compared with the vehicle group [7, 8]: significantly reduce | Serum TG compared with the vehicle group [7, 8]: significantly reduce | serum TG, significance compared with the first group (vehicle), One-way ANOVA ([7]; Day 8, 0.2 mg/kg oral QDx7 days): * (*p < 0.05) | serum TG, significance compared with the first group (vehicle), One-way ANOVA ([7]; Day 8, 0.6 mg/kg oral QDx7 days): **** (****p < 0.0001)

Source: patent US20260234135A1, “CRYSTALLINE FORMS OR SALTS OF A DEUTERATED COMPOUND” (ALEBUND PHARMACEUTICALS (HONG KONG) LIMITED, priority 2023, published 2026)
